From patent US10953028B2, “Method of treating heterotopic ossification” (THE REGENTS OF THE UNIVERSITY OF MICHIGAN, priority 2015, dated 2021) come the findings set out here.

Molecules are shown by their SMILES. “And” between values parts separate entries of the source, which are not always exact repeats. Equal values may be shown once.

One assay concerns burn/tenotomy mice. The assay can be described thus: Burn/tenotomy trauma-induced HO model (microCT, histology, immunostaining). Type of assay: in vivo, mouse. The settings on record: 9 weeks.
The subject of assay [1] is caACVR1fl/fl mice injected with cardiotoxin and Ad.cre. The settings on record: mouse, in vivo.

Turning to `CO[C@H]1C[C@@H]2CC[C@@H](C)[C@@](O)(O2)C(=O)C(=O)N2CCCC[C@H]2C(=O)O[C@H]([C@H](C)C[C@@H]2CC[C@@H](O)[C@H](OC)C2)CC(=O)[C@H](C)/C=C(\C)[C@@H](O)[C@@H](OC)C(=O)[C@H](C)C[C@H](C)/C=C/C=C/C=C/1C` [rapamycin], the “de novo (soft tissue) HO volume” value in the assay on burn/tenotomy mice (rapamycin 5 mg/kg i.p. every other day, control 1.60 mm^3) amounted to 0.81 mm^3. For the same compound, the “de novo (soft tissue) HO normalized volume” value in the assay on burn/tenotomy mice (rapamycin 5 mg/kg i.p., control = 1.0) is given as 0.51. Moreover, in assay [1], the “total HO normalized volume” value stood at 0.0; the “total HO volume” value is 0.00 mm^3 and 0.0 mm^3.
